Test results published in US20240376433A1, “STEM CELL INDUCTION INTO PRECHONDROCYTES AND DIFFERENTIATION INTO CHONDROCYTES BY CIPROFLOXACIN” (SMART CELL LAB CO., LTD., priority 2021, published 2024).

What was measured:
[1] = test system: stem cells; assay: Induction of differentiation of stem cells into chondrocytes (3D), Alcian blue staining; type: cell-based; settings: 3D culture, 0.1 to 6 μM ciprofloxacin, 16 days
Method: Stem cells (collected from tissue donated by a hospital for non-profit patient treatment) were cultured by attaching 80% or more of the stem cells to a Dulbecco's modified Eagle's medium (DMEM) or a-MEM containing 1 to 10% FBS. Thereafter, the cells were collected and counted using Trypsin-EDTA, and 5×10^5 cells were inoculated into a 15 ml conical tube. A medium containing 0.1 to 6 μM ciprofloxacin was centrifuged to settle the cells at 150 g using a centrifuge (Hanil Science Co., Ltd., Combi415). The cells were cultured in a 5% CO2 incubator at 37° C. while exchanging the medium every 2 to 3 days. The stem cells induced to differentiate for 16 days were washed with DPBS and fixed with 4% paraformaldehyde for 1 hour. The completely fixed cells were stained using an Alcian blue solution (Merck, B8438) for 1 hour to 24 hours. Thereafter, the cells were washed once with 1 N HCl, and then further washed three times with sterile distilled water. Finally, the washed sample was observed.

[2] = test system: stem cells; assay: Induction of differentiation of stem cells into chondrocytes (2D), Alcian blue staining; type: cell-based; settings: 2D culture, induced to differentiate for 16 days
Method: Stem cells (collected from tissue donated by a hospital for non-profit patient treatment) were cultured by attaching 80% or more of the stem cells to a Dulbecco's modified Eagle's medium (DMEM) or a-MEM containing 1 to 10% FBS. Thereafter, the cells were collected using Trypsin-EDTA, counted, seeded at 1×10^3 cells/well in a 96-well plate, and attached to the plate for 24 hours. […] Thereafter, the stem cells induced to differentiate for 16 days were washed with DPBS and fixed with 4% paraformaldehyde for 1 hour. The completely fixed cells were stained using an Alcian blue solution (Merck, B8438) for 1 hour to 1 day. Thereafter, the cells were washed once with 1 N HCl, and then further washed three times with sterile distilled water. Finally, the washed sample was observed under a microscope.

[3] = test system: stem cells; settings: stem cells cultured in medium with ciprofloxacin
Method: Stem cells (collected from tissue donated by a hospital for non-profit patient treatment) were cultured by attaching 80% or more of the stem cells to a Dulbecco's modified Eagle's medium (DMEM) or a-MEM containing 1 to 10% FBS.
Thereafter, the cells were collected using Trypsin-EDTA, counted, seeded at 1×10^3 cells/well in a 96-well plate, and attached to the plate for 24 hours. Thereafter, ciprofloxacin (Samsung Pharmaceutical, ciprofloxacin injection) was administered according to the concentration, and then cytotoxicity was confirmed for a specific time (up to 166 hours). Next, each well was treated with Cell Counting Kit-8 (hereinafter referred to as CCK, DOJINDO, Cat. No. CK04-13) at 10 μl/well, and then cultured at 37° C. in a 5% CO2 incubator for 1 hour.
The absorbance was measured using an absorbance meter (Bio-Tek, Epoch2) and quantitatively calculated.

SMILES: O=C(O)c1cn(C2CC2)c2cc(N3CCNCC3)c(F)cc2c1=O [ciprofloxacin]
- differentiation into chondrocytes, Alcian blue staining (3D) [1]: Alcian blue staining, which appears depending on SOX9, was present throughout the chondrocytes
- differentiation into chondrocytes, Alcian blue staining (2D) [2]: Alcian blue staining, which appears depending on SOX9, was present throughout the chondrocytes
- cell viability compared to a control (CONT) [3]: a significant difference in cell viability was not exhibited
